# From US9499535B2, “Kinase inhibitors” (ORIGENIS GMBH, priority 2011, dated 2016)
# Target: T1, SYK kinase (Homo sapiens, UniProt P43405)
# T1 construct: purchased Invitrogen, Carlsbad
# Test: SYK assay (OMNIA Kinase Assay, Invitrogen)
# Format: biochemical
# Details: apparent Ki calculated from the IC50 using the Cheng-Prusoff equation; 1 mM ATP, 10 μM Peptide Substrate; read-out: SYK Activities: Ki
# Procedure: In the assay OMNIA® KINASE ASSAY by Invitrogen Corporation (Carlsbad) the effect of invention of a compound on the phosphorylation is determined by measurement of fluorescence intensity of a chelation-enhanced fluorophore called SOX. Upon phosphorylation of the peptide by the kinase of interest, Mg2+ is chelated to form a bridge between the SOX moiety and the phosphate group that is transferred to the specific tyrosine on the peptide. The fluorescence intensity is directly proportional to the amount of peptide phosphorylation.
# To the wells of an 384 well small volume plate (Greiner, Frickenhausen) are added (i) the compound under test in 5% DMSO/distilled water (2 μl), (ii) 16 μl of the master mix containing ATP, DTT, Kinase Reaction Buffer, Omina Peptide Substrate Tyr 7 resulting in a final concentration of 1 mM ATP, 0.2 mM DTT and 10 μM Peptide Substrate.
# The Master Mix and the assay plate was incubated to reaction temperature before the measurement (30° C.). The reaction was started with addition of (iii) 2 μl 4 μg/ml SYK kinase (Invitrogen, Carlsbad). During measurement fluorescence intensitiy readings were collected using a TECAN M1000 at a wavelength of λex 360/λem 485 nm every 30 s for 30 minutes. The reaction velocity was plotted versus the inhibitor concentration to determine the IC50 using XLFit 5.0 (IDBS, Guildford) to fit to a sigmoidal dose response curve, and the apparent Ki values were calculated from the IC50 using the Cheng-Prusoff equation (Cheng, Y.; Prusoff, W. H. Biochem. Pharmacol. 22, 3099-3108, 1973).
row,SMILES,Ki
1,"COc1ccc(Nc2nc3ccccc3c3c([N+](=O)[O-])[nH]nc23)cc1OC [Example #213, (3,4-Dimethoxy-phenyl)-(1-nitro-2H-pyrazolo[3,4-c]quinolin-4-yl)-amine]",100 to 1000 nM
2,"CN1CCN(c2ccc(Nc3nc4ccccc4c4c([N+](=O)[O-])[nH]nc34)cc2)CC1 [Example #214, [4-(4-Methyl-piperazin-1-yl)-phenyl]-(1-nitro-2H-pyrazolo[3,4-c]quinolin-4-yl)-amine]",100 to 1000 nM
3,"COc1ccc(Nc2nc3snc(C)c3c3c[nH]nc23)cc1OC [Example #218, (3,4-Dimethoxy-phenyl)-(1-methyl-7H-3-thia-2,4,6,7-tetraaza-as-indacen-5-yl)-amine]",100 to 1000 nM
4,"Cc1nsc2nc(Nc3ccc(N4CCN(C)CC4)cc3)c3n[nH]cc3c12 [Example #220, [4-(4-Methyl-piperazin-1-yl)-phenyl]-(1-methyl-7H-3-thia-2,4,6,7-tetraaza-as-indacen-5-yl)-amine]",100 to 1000 nM
5,"Cc1[nH]nc2c(Nc3ccc4cn[nH]c4c3)nc3cc(C#N)ccc3c12 [Example #227, 4-(1H-Indazol-6-ylamino)-1-methyl-2H-pyrazolo[3,4-c]quinoline-7-carbonitrile]",100 to 1000 nM
6,"COc1ccc2nc(Nc3ccc(C(=O)N4CCCC4)cc3)c3n[nH]cc3c2c1 [Example #231, [4-(8-Methoxy-2H-pyrazolo[3,4-c]quinolin-4-ylamino)-phenyl]-pyrrolidin-1-yl-methanone]",100 to 1000 nM
7,"COc1cccc2c1nc(Nc1ccc3c(c1)OCO3)c1n[nH]cc12 [Example #249, Benzo[1,3]dioxol-5-yl-(6-methoxy-2H-pyrazolo[3,4-c]quinolin-4-yl)-amine]",100 to 1000 nM
8,"COC(=O)c1scc2c1nc(Nc1ccc(OC)c(OC)c1)c1n[nH]cc12 [Example #275, 4-((3,4-dimethoxyphenyl)amino)-2H-pyrazolo[4,3-d]thieno[3,4-b]pyridine-6-carboxylic acid methyl ester]",100 to 1000 nM
9,"COc1ccc2nc(Nc3ccc(-c4ccc(C(=O)O)cc4)cc3)c3n[nH]cc3c2c1 [Example #288, 4′-((8-methoxy-2H-pyrazolo[3,4-c]quinolin-4-yl)amino)-[1,1′-biphenyl]-4-carboxylic acid]",100 to 1000 nM
10,"COc1cc(OC)c2nc(Nc3ccc(NC(=O)Nc4cccc(C)c4)cc3)c3n[nH]cc3c2c1 [Example #297, 1-(4-((6,8-dimethoxy-2H-pyrazolo[3,4-c]quinolin-4-yl)amino)phenyl)-3-(m-tolyl)urea]",100 to 1000 nM
11,"COc1cc2nc(Nc3ccc(NC(=O)Nc4cccc(C)c4)cc3)c3n[nH]cc3c2cc1OC [Example #299, 1-(4-((7,8-dimethoxy-2H-pyrazolo[3,4-c]quinolin-4-yl)amino)phenyl)-3-(m-tolyl)urea]",100 to 1000 nM
12,"COc1ccc2nc(Nc3cccc(S(F)(F)(F)(F)F)c3)c3n[nH]cc3c2c1 [Example #309, 8-methoxy-N-(3-(pentafluorosulfanyl)phenyl)-2H-pyrazolo[3,4-c]quinolin-4-amine]",100 to 1000 nM
13,"COc1ccc2nc(Nc3cc(F)cc(F)c3)c3n[nH]cc3c2c1 [Example #315, N-(3,5-difluorophenyl)-8-methoxy-2H-pyrazolo[3,4-c]quinolin-4-amine]",100 to 1000 nM
14,"COc1ccc2nc(Nc3cccc(OC)c3OC)c3n[nH]cc3c2c1 [Example #331, N-(2,3-dimethoxyphenyl)-8-methoxy-2H-pyrazolo[3,4-c]quinolin-4-amine]",100 to 1000 nM
15,"COc1ccc(Nc2nc3ccc(OC)cc3c3c[nH]nc23)c(OC)c1 [Example #332, N-(2,4-dimethoxyphenyl)-8-methoxy-2H-pyrazolo[3,4-c]quinolin-4-amine]",100 to 1000 nM
16,"O=C(c1ccc(Nc2nc3cc(F)ccc3c3cn[nH]c23)cc1)N1CCCC1 [Example #342, (4-((7-fluoro-3H-pyrazolo[3,4-c]quinolin-4-yl)amino)phenyl)(pyrrolidin-1-yl)methanone]",100 to 1000 nM
17,"COc1ccc2nc(Nc3ccc(-n4nccn4)cc3)c3n[nH]cc3c2c1 [Example #345, N-(4-(2H-1,2,3-triazol-2-yl)phenyl)-8-methoxy-2H-pyrazolo[3,4-c]quinolin-4-amine]",100 to 1000 nM

# Next, values leading:
row,Ki,SMILES
1,100 to 1000 nM,"CN1CCN(c2ccc(Nc3nc4ccccc4c4c(C(F)(F)F)[nH]nc34)cc2)CC1 [Example #211, [4-(4-Methyl-piperazin-1-yl)-phenyl]-(1-trifluoromethyl-2H-pyrazolo[3,4-c]quinolin-4-yl)-amine]"
2,100 to 1000 nM,"FC(F)(F)c1[nH]nc2c(Nc3ccc4cn[nH]c4c3)nc3ccccc3c12 [Example #212, (1H-Indazol-6-yl)-(1-trifluoromethyl-2H-pyrazolo[3,4-c]quinolin-4-yl)-amine]"
3,< 10 nM,"N#Cc1ccc2nc(Nc3ccc(N4CCOCC4)cc3)c3n[nH]cc3c2c1 [Example #217, 4-(4-Morpholin-4-yl-phenylamino)-2H-pyrazolo[3,4-c]quinoline-8-carbonitrile]"
4,10 to 100 nM,"Cc1nsc2nc(Nc3ccc4cn[nH]c4c3)c3n[nH]cc3c12 [Example #219, (1H-Indazol-6-yl)-(1-methyl-7H-3-thia-2,4,6,7-tetraaza-as-indacen-5-yl)-amine]"
5,< 10 nM,"COc1ccc(Nc2nc3cc(C#N)ccc3c3c(C)[nH]nc23)cc1OC [Example #226, 4-(3,4-Dimethoxy-phenylamino)-1-methyl-2H-pyrazolo[3,4-c]quinoline-7-carbonitrile]"
6,10 to 100 nM,"CCN1CCN(c2ccc(Nc3nc4cc(OC)ccc4c4c[nH]nc34)cc2)CC1 [Example #260, [4-(4-Ethyl-piperazin-1-yl)-phenyl]-(7-methoxy-2H-pyrazolo[3,4-c]quinolin-4-yl)-amine]"
7,10 to 100 nM,"COc1ccc2c(c1)nc(Nc1ccc3c(c1)OCCO3)c1n[nH]cc12 [Example #265, (2,3-Dihydro-benzo[1,4]dioxin-6-yl)-(7-methoxy-2H-pyrazolo[3,4-c]quinolin-4-yl)-amine]"
8,10 to 100 nM,"COc1ccc2c(c1)nc(Nc1ccc3c(c1)OCO3)c1n[nH]cc12 [Example #267, Benzo[1,3]dioxol-5-yl-(7-methoxy-2H-pyrazolo[3,4-c]quinolin-4-yl)-amine]"
9,10 to 100 nM,"COc1ccc2nc(Nc3ccc(NC(=O)Nc4cccc(C)c4)cc3)c3n[nH]cc3c2c1 [Example #289, 1-(4-((8-methoxy-2H-pyrazolo[3,4-c]quinolin-4-yl)amino)phenyl)-3-(m-tolyl)urea]"
10,10 to 100 nM,"COc1ccc2nc(Nc3ccc(F)c(F)c3)c3n[nH]cc3c2c1 [Example #311, N-(3,4-difluorophenyl)-8-methoxy-2H-pyrazolo[3,4-c]quinolin-4-amine]"
11,< 10 nM,"COc1ccc2nc(Nc3ccc([N+](=O)[O-])cc3)c3n[nH]cc3c2c1 [Example #318, 8-methoxy-N-(4-nitrophenyl)-2H-pyrazolo[3,4-c]quinolin-4-amine]"
12,10 to 100 nM,"O=C1COc2ccc(Nc3nc4cc(F)ccc4c4cn[nH]c34)cc2N1 [Example #334, 6-((7-fluoro-3H-pyrazolo[3,4-c]quinolin-4-yl)amino)-2H-benzo[b][1,4]oxazin-3(4H)-one]"
13,10 to 100 nM,"Fc1ccc2c(c1)nc(Nc1ccc(N3CCOCC3)cc1)c1[nH]ncc12 [Example #335, 7-fluoro-N-(4-morpholinophenyl)-3H-pyrazolo[3,4-c]quinolin-4-amine]"
14,10 to 100 nM,"COc1ccc(Nc2nc3cc(F)ccc3c3cn[nH]c23)cc1OC [Example #336, N-(3,4-dimethoxyphenyl)-7-fluoro-3H-pyrazolo[3,4-c]quinolin-4-amine]"
